Experimental findings from patent publication US9345671B2, “Adiponectin production enhancer” (Daiichi Sankyo Company, Limited, priority 2003, dated 2016) are described below.

One experiment deals with adiponectin mRNA. Description: Measurement of adiponectin mRNA by quantitative RT-PCR in 3T3-L1 adipocytes. The settings on record: test compound 10 μM, 48 hours then 24 hours after replacing the medium, 36B4 internal control. It counts as cell-based. The procedure:
Preadipocyte cell line 3T3-L1 was purchased from the American Type Culture Collection (ATCC). […] Subsequently, the medium was replaced with fresh growth medium every 3 days, and the 3T3-L1 adipocytes were prepared on day 10 after the start of differentiation. Test compounds that were poorly soluble in water were used after dissolving in DMSO. Test compounds that were easily soluble in water were dissolved in sterile water followed by addition of the same amount of DMSO as that used for the aforementioned poorly water-soluble test compounds. In addition, in the case of test compounds that are poorly soluble in water, the test compound may be dissolved in ethanol and used following the addition of 0.1 N aqueous sodium hydroxide solution after shaking as necessary. After allowing the 3T3-L1 cells to adequately differentiate into adipocytes, a test compound was added to the medium to a final concentration of 10 μM followed by culturing the cells for 48 hours. The cells were additionally cultured for 24 hours after replacing the medium. […] The synthesized cDNA was amplified using FastStrand DNA Master SYBR Green I (Roche Diagnostics), and the amplified PCR product was detected with LightCycler (Roche Diagnostics). […] The adiponectin mRNA amount was measured according to quantitative RT-PCR.

The subject of experiment [1] is C57BL/6J mice. Description: Administration of pravastatin to mice in feed: blood glucose levels and adiponectin concentrations. The experiment is classed as in vivo. The settings on record: 0.06% (wt/wt) in feed for 15 weeks. As to the method: The body weights of the animals were measured and blood samples were collected on the day the test started, and the animals were divided into two groups of 5 animals per cage based on their body weights and blood glucose levels. […] Blood samples were collected from the tail vein in an amount equal to one heparinized capillary tube.
The amount of feed and general behaviour were checked at least once a day.
Blood glucose levels were measured on the days when blood samples were collected.

The subject of experiment [2] is C57BL/6J mice. Description: Insulin tolerance test using pravastatin-dosed mice. It counts as in vivo. The settings on record: C57BL/6J mice dosed in feed for 15 weeks, fasted 2 hours, insulin 0.5 u/kg intraperitoneally; significantly lower than non-dose group (148 mg/dl). As to the method:
A group administered with pravastatin by mixing in feed for 15 weeks and a non-dosed group of C57BL/6J mice (n=5) were fasted for 2 hours. After measuring the body weight of each animal, insulin (Humalin, Lilly) was administered intraperitoneally at 0.5 u/kg, and blood samples were collected from the tail vein immediately before the start of administration and at 15, 30, 60 and 90 minutes after the start of administration followed by measurement of blood glucose levels.

For experiment [3], the system named is C57BL/6J mouse adipocytes. The experiment in a line: Glucose uptake test using isolated adipocytes from pravastatin-dosed mice. The experiment is classed as in vivo. As to the method: (i) Epididymal adipose tissue was excised from a group administered with pravastatin for 16 weeks and a non-dosed group of C57BL/6J mice (n=5). The excised adipose tissue was handled under conditions of 37° C. at all times. The adipose tissue was cut into small pieces with a scissors, followed by the addition of medium (DMEM, 1 mM sodium pyruvate, 25 mM HEPES pH 7.4, 0.1% BSA, 100 u/ml penicillin, 0.1 mg/ml streptomycin) containing 1 mg/ml of collagenase I (Worshington), and shaking at 37° C. and 80 rpm. Following the reaction, 2.5 volumes of the aforementioned medium were added, the adipocytes were screened out by passing the cell suspension through a 260 μm mesh sieve, and again passed through a 100 μm mesh sieve to prepare an adipocyte suspension. […] Subsequently, 0.6 μCi of ^3H-labeled 2-deoxyglucose was added and allowed to react for 30 minutes. Following the reaction, the cell suspension was immediately transferred to a centrifuge tube containing silicone oil and centrifuged. After cutting out the oil layer of the upper layer containing adipocytes with a knife, it was transferred to a glass vial containing 4 ml of Hionic Fluor (Perkin-Elmer) liquid scintillation counter cocktail followed by measurement of specific radioactivity. The amount of measured radioactivity of the ^3H-2-deoxyglucose was used as an indicator of the amount of glucose taken up by the cells. (4) Results

A further experiment concerns secreted adiponectin. Description: Measurement of amount of secreted adiponectin in 3T3-L1 adipocyte culture supernatant by Western blotting. The experiment is classed as cell-based. The settings on record: 3T3-L1 adipocytes culture supernatant, test compound 10 μM, 48 hours then 24 hours after replacing the medium; densitometer. The procedure: Preadipocyte cell line 3T3-L1 was purchased from the American Type Culture Collection (ATCC). […] Subsequently, the medium was replaced with fresh growth medium every 3 days, and the 3T3-L1 adipocytes were prepared on day 10 after the start of differentiation. Test compounds that were poorly soluble in water were used after dissolving in DMSO. Test compounds that were easily soluble in water were dissolved in sterile water followed by addition of the same amount of DMSO as that used for the aforementioned poorly water-soluble test compounds. In addition, in the case of test compounds that are poorly soluble in water, the test compound may be dissolved in ethanol and used following the addition of 0.1 N aqueous sodium hydroxide solution after shaking as necessary. After allowing the 3T3-L1 cells to adequately differentiate into adipocytes, a test compound was added to the medium to a final concentration of 10 μM followed by culturing the cells for 48 hours. The cells were additionally cultured for 24 hours after replacing the medium. […] Secretion of adiponectin into culture supernatant was detected by Western blotting. […] After washing the PVDF membrane, the adiponectin bands were detected using ECL Detection Reagents (Amersham-Pharmacia). The bands were quantified with a densitometer (Molecular Devices). The amounts of secreted adiponectin were analyzed by Western blotting.

With `CC[C@H](C)C(=O)O[C@H]1C[C@H](O)C=C2C=C[C@H](C)[C@H](CC[C@@H](O)C[C@@H](O)CC(=O)O)[C@H]21` [pravastatin, (+)-(3R,5R)-3,5-dihydroxy-7-[(1S,2S,6S,8S,8aR)-6-hydroxy-2-methyl-8-[(S)-2-methylbutyryloxy]-1,2,6,7,8,8a-hexahydro-1-naphthyl]heptanoic acid], in the experiment on adiponectin mRNA, the “amount of adiponectin mRNA relative to the control group” value is listed as 1.6 times. The “blood glucose levels, dose group versus non-dose group” value in the experiment with C57BL/6J mice [1] is reported as “no significant differences”. Besides, in the experiment with C57BL/6J mice [1] (blood), the “adiponectin concentrations in dose group relative to non-dose group” value was 1.28 times. Also, in the experiment on C57BL/6J mice [2], the “blood glucose level at 60 minutes after administration of insulin” value was 110 mg/dL. In addition, the “insulin sensitivity versus non-dose group” value in experiment [3] (adipocytes isolated from C57BL/6J mice dosed for 16 weeks) was “increased insulin sensitivity”. Moreover, in experiment [3] (epididymal adipocytes isolated from C57BL/6J mice dosed for 16 weeks, insulin-induced 3H-2-deoxyglucose uptake), the “amount of glucose uptake relative to non-dose group” value is 1.4 times. For the same compound, the “amount of secreted adiponectin relative to the control group” value with secreted adiponectin was determined as 1.7 times.

In the case of `CC(C)c1nc(N(C)S(C)(=O)=O)nc(-c2ccc(F)cc2)c1/C=C/[C@@H](O)C[C@@H](O)CC(=O)O` [rosuvastatin, (+)-(3R,5S)-7-[4-(4-fluorophenyl)-6-isopropyl-2-(N-methyl-N-methanesulfonylamino)pyrimidin-5-yl]-3,5-dihydroxy-6(E)-heptenoic acid], the “amount of adiponectin mRNA relative to the control group” value in the experiment with adiponectin mRNA turned out to be 1.3 times. In addition, the “amount of secreted adiponectin relative to the control group” value in the experiment on secreted adiponectin was determined as 1.6 times.
